From article PMC5507595 (Free radical biology & medicine, 2017) come the findings set out here.

This test deals with protein disulfide isomerase (PDI) (Homo sapiens, UniProt P07237). Nature of the test: absorbance titration of MNS with reduced PDI. Format: binding.

The structures appear in SMILES notation.

Chain of protein disulfide isomerase (PDI) (P07237 18-508): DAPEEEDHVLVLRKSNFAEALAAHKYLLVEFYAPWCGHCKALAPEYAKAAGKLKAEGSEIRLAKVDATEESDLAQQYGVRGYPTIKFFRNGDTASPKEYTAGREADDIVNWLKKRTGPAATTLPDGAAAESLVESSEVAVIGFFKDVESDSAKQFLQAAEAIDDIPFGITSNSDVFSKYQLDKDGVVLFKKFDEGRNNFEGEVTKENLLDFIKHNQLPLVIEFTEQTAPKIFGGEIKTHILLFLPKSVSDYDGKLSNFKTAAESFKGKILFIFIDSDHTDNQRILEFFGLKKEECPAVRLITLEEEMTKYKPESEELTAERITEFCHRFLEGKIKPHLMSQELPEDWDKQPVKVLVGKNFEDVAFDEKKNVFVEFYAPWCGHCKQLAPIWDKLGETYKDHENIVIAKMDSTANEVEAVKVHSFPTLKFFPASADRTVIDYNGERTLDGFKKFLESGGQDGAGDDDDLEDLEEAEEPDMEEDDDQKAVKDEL

As for `O=[N+]([O-])C=Cc1ccc2c(c1)OCO2` [3,4-methylenedioxy-β-nitrostyrene], the Kd entry is “low micromolar”.
